Assay results from patent US8101624B2, “Quinazoline derivatives” (Aska Pharmaceutical Co., Ltd., priority 2006, dated 2012).
pIC50: −log10 of the molar value.

Molecular target: T1, human recombinant PDE9 protein (hsPDE9A1) (Homo sapiens, UniProt O76083)
T1 construct: made in house; host or cells: COS-1 cells (transient transfection, pcDNA 3.1(+))
Experiment: Measurement of PDE9-inhibiting activity ([3H]-cGMP hydrolysis)
Format: biochemical
Settings: for inhibition at 1 µM: human recombinant PDE9, read-out: Inhibiting Activity PDE9 (percent inhibition at 1 μM)
Description: (1) Measurement of PDE9-Inhibiting Activity:
1) Preparation of Human Recombinant PDE9 Protein
Based on the base sequence of hsPDE9A1 registered with GenBank database (accession No.: AF048837), hsPDE9A1 fragment was amplified by polymerase chain reaction under the following conditions, using the following sequence (Amasham Pharmacia Biotech) as the primer and Human Prostate […] cDNA library (CLONTECH) as the template DNA, with Pfu Turbo DNA polymerase ([…]):
PCR condition: [95° C., 5 min]×1 cycle, [(95° C., 1 min), (58° C., 2 min), (72° C., 3 min)]×25 cycles, [72° C., 10 min]×1 cycle
Thus obtained hsPDE9A1 fragment was given a restricted enzymatic treatment with NheI and NotI, and thereafter inserted into pcDNA 3.1(+) expression vector (Invitrogen) to let it serve as a human PDE9 expression vector.
Human PDE9 expression vector-transformed Escherichia coli was mass incubated to produce a large amount of human PDE9 expression vector, which was transiently transfected into COS-1 cells, with LIPOFECTAMINE 2000 Reagent (GIBCO). The cells were homogenized in ice-cooled buffer A (40 mmol/L Tris-HCl, pH7.5, 15 mmol/L benzamidine, 15 mmol/L 2-mercaptoethanol, 1 μg/mL Pepstatin A, 1 μg/mL Leupeptin, 5 mmol/L EDTA) and centrifuged at 4° C., 14,000×g for 10 minutes. The supernatant was isolated to provide human recombinant PDE9 protein solution.
2) Measurement of PDE9-Inhibiting Activity
To 150 μL of buffer B (70 mmol/L Tris-HCl, pH7.5; 16.7 mmol/L MgCl2, 33.3 nmol/L [^3H]-cGMP) solution containing [^3H]-cGMP (specific activity=244.2 GBq/mmol) at a concentration of 33.3 nmol/L, 50 μL of a solution of the compound to be evaluated (formed by dissolving the compound in DMSO and diluting it with distilled water to DMSO concentration of 5%) and 50 μL of the PDE9 protein solution as prepared in the above, as diluted with buffer C (40 mmol/L Tris-HCl, pH7.5, 15 mmol/L benzamidine, 15 mmol/L 2-mercaptoethanol, 1 μg/mL Pepstatin A, 1 μg/mL Leupeptin) by 1,500×, were added under cooling with ice. This mixed solution was incubated at 30° C. for 30 minutes and the enzymatic reaction of PDE9 was terminated by heating the system in boiling water for 90 seconds. Returning the system to room temperature, 50 μL of Snake venom (SIGMA: 1 mg/mL) was added, followed by 10 minutes' incubation at 30° C., to convert the [^3H]-5′-GMP produced in the previous reaction to [^3H]-guanosine. This reaction solution was passed through a column filled with 1 mL of 0.5 mol/L hydrochloric acid-activated cation-exchange resin (Bio-Rad AG50W-X4 resin, mesh size 200-400) and removed of the unreacted substrate ([^3H]-cGMP) by elution with 12 mL of distilled water. Thereafter [^3H]-guanosine was eluted with 3 mL of 3 mol/L aqueous ammonia and its radiation activity was measured with liquid scintillation counter.
PDE9 inhibition of the tested compound can be calculated by the following formula: […]
From the percent inhibition at various concentration levels of each tested compound, its IC50 value against PDE9 can be determined.

T1 sequence (O76083 whole entry): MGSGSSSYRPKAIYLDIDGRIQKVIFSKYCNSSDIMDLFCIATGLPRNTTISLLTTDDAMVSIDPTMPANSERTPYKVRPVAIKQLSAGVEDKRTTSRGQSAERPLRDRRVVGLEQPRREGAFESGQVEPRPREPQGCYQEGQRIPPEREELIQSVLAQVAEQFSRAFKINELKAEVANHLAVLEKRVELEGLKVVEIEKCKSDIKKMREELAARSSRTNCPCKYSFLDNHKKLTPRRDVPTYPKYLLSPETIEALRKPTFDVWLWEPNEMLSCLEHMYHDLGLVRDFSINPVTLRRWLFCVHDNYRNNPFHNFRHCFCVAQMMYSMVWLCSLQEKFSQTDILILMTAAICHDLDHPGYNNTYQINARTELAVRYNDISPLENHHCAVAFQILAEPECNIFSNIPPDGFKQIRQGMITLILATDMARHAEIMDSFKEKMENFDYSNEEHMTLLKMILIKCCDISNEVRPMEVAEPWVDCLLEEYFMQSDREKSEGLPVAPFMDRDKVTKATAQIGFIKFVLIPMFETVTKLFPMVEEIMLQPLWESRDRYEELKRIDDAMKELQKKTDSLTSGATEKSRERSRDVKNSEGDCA

Row | inhibition at 1 µM | Compound | other results
1 | 30% | O=C(O)c1ccc2c(=O)[nH]c(Cc3cccnc3)nc2c1 [Example 7, 4-Oxo-2-(3-pyridylmethyl)-3,4-dihydroquinazoline-7-carboxylic acid] | 
2 |  | Cn1c(Cc2cccc(Cl)c2)nc2cc(C(=O)O)ccc2c1=O [Referential Example 1, 2-(3-Chlorobenzyl)-3-methyl-4-oxo-3,4-dihydroquinazoline-7-carboxylic acid, reference compound] | PDE9-inhibiting activity relative to that of the compound of Example 1 (ratio of activity versus Example 1): less than 1/100
3 |  | O=C(O)c1ccc2c(=O)[nH]c(Cc3ccccn3)nc2c1 [Example 6, 4-Oxo-2-(2-pyridylmethyl)-3,4-dihydroquinazoline-7-carboxylic acid] | pIC50 (human recombinant PDE9 expressed in COS-1 cells, 30° C., 30 minutes): 5.87
4 | 41% | COc1cccc(Cc2nc3cc(C(=O)O)ccc3c(=O)[nH]2)c1 [Example 5, 2-(3-Methoxybenzyl)-4-oxo-3,4-dihydroquinazoline-7-carboxylic acid] | 
5 | 11% | COc1ccc(Cc2nc3cc(C(=O)O)ccc3c(=O)[nH]2)cc1OC [Example 3, 2-(3,4-Dimethoxybenzyl)-4-oxo-3,4-dihydroquinazoline-7-carboxylic acid] | 
